Experimental data taken from ChEMBL document CHEMBL5584205 (Bioorg Med Chem Lett, 2024).
Active and inactive are the calls of the source. The rule behind the calls is not given here.

What was measured:
[1] = Inhibition of elastase release in fMLP/CB-induced human neutrophils by cell based assay; type: functional; conditions: Neutrophil
Neutrophil = experiment: Inhibition of O2 generation in fMLP/CB-induced human neutrophils by cell based assay; type: functional
Neutrophil elastase = molecular target: T1, Neutrophil elastase (Homo sapiens, UniProt P08246); experiment: Inhibition of human neutrophil elastase by enzymatic assay
T1 sequence (P08246 whole entry): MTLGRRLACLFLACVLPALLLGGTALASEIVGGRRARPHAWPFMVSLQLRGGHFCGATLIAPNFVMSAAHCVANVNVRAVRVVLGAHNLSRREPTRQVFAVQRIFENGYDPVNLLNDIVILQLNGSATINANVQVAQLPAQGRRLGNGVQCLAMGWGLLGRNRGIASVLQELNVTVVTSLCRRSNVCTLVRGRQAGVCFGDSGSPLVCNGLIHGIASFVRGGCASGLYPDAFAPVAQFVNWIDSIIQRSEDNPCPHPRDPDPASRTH

Homo sapiens = organism: Homo sapiens; experiment: Inhibition of CG (unknown origin)
Myeloblastin = molecular target: T2, Myeloblastin (Homo sapiens, UniProt P24158); experiment: Inhibition of PR3 (unknown origin) activity
T2 sequence (P24158 whole entry): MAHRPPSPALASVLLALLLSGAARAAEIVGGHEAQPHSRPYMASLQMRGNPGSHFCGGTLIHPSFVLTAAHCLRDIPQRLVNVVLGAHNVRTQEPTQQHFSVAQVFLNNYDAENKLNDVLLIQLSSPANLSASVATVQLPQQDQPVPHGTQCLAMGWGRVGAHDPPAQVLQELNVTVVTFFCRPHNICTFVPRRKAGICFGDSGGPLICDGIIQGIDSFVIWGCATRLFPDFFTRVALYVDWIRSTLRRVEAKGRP

[2] = molecular target: T3, NAD-dependent protein deacetylase sirtuin-2 (Homo sapiens, UniProt Q8IXJ6); experiment: Inhibition of SIRT2 (unknown origin) activity
T3 sequence (Q8IXJ6 whole entry): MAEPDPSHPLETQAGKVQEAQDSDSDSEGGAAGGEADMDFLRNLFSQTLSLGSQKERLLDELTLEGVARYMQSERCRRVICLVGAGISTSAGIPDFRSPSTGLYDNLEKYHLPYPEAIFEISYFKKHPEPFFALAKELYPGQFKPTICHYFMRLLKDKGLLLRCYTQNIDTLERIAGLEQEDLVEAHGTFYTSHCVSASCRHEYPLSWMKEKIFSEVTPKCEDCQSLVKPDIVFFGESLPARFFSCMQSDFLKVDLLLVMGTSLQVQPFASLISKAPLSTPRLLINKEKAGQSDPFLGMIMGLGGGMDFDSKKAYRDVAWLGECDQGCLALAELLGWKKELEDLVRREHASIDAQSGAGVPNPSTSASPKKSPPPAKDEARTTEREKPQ

SMILES | IC50 [1] [µM] | IC50 (Neutrophil) [µM] | IC50 (Neutrophil elastase) [µM] | inhibition (Homo sapiens) | IC50 (Myeloblastin) [µM] | IC50 [2] [µM]
CC(NC(=O)c1ccccc1NCc1c(O)ccc2ccccc12)c1ccccc1 (configuration not stated) | 6.44 | > 10 | 26.2 |  |  | 
C[C@@H](NC(=O)c1ccccc1/N=C/c1c(O)ccc2ccccc12)C1CCCCC1 | > 10 | > 10 | > 50 |  |  | 
O=C(N[C@@H](C(=O)O)c1ccccc1)c1ccccc1/N=N/c1c(O)ccc2ccccc12 | 2.36 | 1.12 | 20.4 |  |  | 
CC(NC(=O)c1ccccc1/N=N/c1c(O)ccc2ccccc12)c1ccccc1 (configuration not stated) | > 10 | > 10 | 12.1 |  |  | 
O=C(N[C@H](C(=O)O)c1ccccc1)c1ccccc1/N=N/c1c(O)ccc2ccccc12 | 2.25 | 2.02 | 16.8 |  |  | 
COC(=O)[C@@H](Cc1ccccc1)NC(=O)c1ccccc1/N=N/c1c(O)ccc2ccccc12 | > 10 |  | 19.3 |  |  | 
COC(=O)[C@@H](NC(=O)c1ncccc1/N=N/c1c(O)ccc2ccccc12)c1ccccc1 | > 10 | > 10 | 22.4 |  |  | 
O=C(N[C@@H](Cc1ccccc1)C(=O)O)c1ccccc1/N=N/c1c(O)ccc2ccccc12 | 1.07 | 1.31 | 21 |  |  | 
O=C(N[C@H](Cc1ccccc1)C(=O)O)c1ccccc1/N=N/c1c(O)ccc2ccccc12 | 1.54 | 1.61 | 20.7 |  |  | 
O=C(N[C@H](C(=O)O)c1ccccc1)c1ncccc1/N=N/c1c(O)ccc2ccccc12 | 1.86 | 0.9 | 4.91 | inactive | 20.7 | 2.42
COC(=O)[C@H](Cc1ccccc1)NC(=O)c1ccccc1/N=N/c1c(O)ccc2ccccc12 | > 10 |  | 31.2 |  |  | 
CC(NC(=O)c1ccccc1/N=C/c1ccccc1O)c1ccccc1 (configuration not stated) | > 10 | 6.07 | > 50 |  |  | 

More lines, now with the values ahead:

IC50 [1] [µM] | IC50 (Neutrophil) [µM] | IC50 (Neutrophil elastase) [µM] | inhibition (Homo sapiens) | IC50 (Myeloblastin) [µM] | IC50 [2] [µM] | SMILES
> 10 | 2.5 | > 50 |  |  |  | O=C(N[C@H](C(=O)O)c1ccccc1)c1ccccc1/N=C/c1c(O)ccc2ccccc12
2.09 | 2.95 | > 50 |  |  |  | COC(=O)[C@H](Cc1ccccc1)NC(=O)c1ccccc1/N=C/c1c(O)ccc2ccccc12
1.59 | 4.27 | > 50 |  |  |  | COC(=O)[C@@H](Cc1ccccc1)NC(=O)c1ccccc1/N=C/c1c(O)ccc2ccccc12
3.84 | 3.56 | > 50 |  |  |  | COC(=O)[C@@H](NC(=O)c1ccccc1/N=C/c1c(O)ccc2ccccc12)c1ccccc1
> 10 | > 10 | 18 |  |  |  | COC(=O)[C@@H](NC(=O)c1ccccc1/N=N/c1c(O)ccc2ccccc12)c1ccccc1
4.98 | 4.36 | > 50 |  |  |  | COC(=O)[C@H](NC(=O)c1ccccc1/N=C/c1ccccc1O)c1ccccc1
1.92 | > 10 | 24.5 |  |  |  | CC(NC(=O)c1ccccc1/N=C/c1c(O)ccc2ccccc12)c1ccccc1 (configuration not stated) [SIRTINOL]
> 10 | > 10 | 18.9 |  |  |  | COC(=O)[C@H](NC(=O)c1ccccc1/N=N/c1c(O)ccc2ccccc12)c1ccccc1
8.73 | > 10 | > 50 |  |  |  | COC(=O)[C@@H](NC(=O)c1ccccc1/N=C/c1ccccc1O)c1ccccc1
1.76 | 5.56 | 38.8 |  |  |  | COC(=O)[C@H](NC(=O)c1ccccc1/N=C/c1c(O)ccc2ccccc12)c1ccccc1
